Active and inactive are the calls of the source. The calls are words filed in the database; no cut-off is given here.
Columns and labels:
Rattus norvegicus = test: AUC in rat at 10 mg/kg after 6 hrs; assay type: ADME, organism-based, Plasma; set-up: time < 6 hr, dose 10 mg/kg; settings: in vivo
Cytochrome P450 2D6 [1] = molecular target: T1, Cytochrome P450 2D6 (Homo sapiens, UniProt P10635); test: Inhibition of CYP2D6 preincubated with compound; assay type: ADME
Cytochrome P450 2C9 [2] = molecular target: T2, Cytochrome P450 2C9 (Homo sapiens, UniProt P11712); test: Inhibition of CYP2C9 coincubated with compound; assay type: ADME
T2 sequence (P11712 whole entry): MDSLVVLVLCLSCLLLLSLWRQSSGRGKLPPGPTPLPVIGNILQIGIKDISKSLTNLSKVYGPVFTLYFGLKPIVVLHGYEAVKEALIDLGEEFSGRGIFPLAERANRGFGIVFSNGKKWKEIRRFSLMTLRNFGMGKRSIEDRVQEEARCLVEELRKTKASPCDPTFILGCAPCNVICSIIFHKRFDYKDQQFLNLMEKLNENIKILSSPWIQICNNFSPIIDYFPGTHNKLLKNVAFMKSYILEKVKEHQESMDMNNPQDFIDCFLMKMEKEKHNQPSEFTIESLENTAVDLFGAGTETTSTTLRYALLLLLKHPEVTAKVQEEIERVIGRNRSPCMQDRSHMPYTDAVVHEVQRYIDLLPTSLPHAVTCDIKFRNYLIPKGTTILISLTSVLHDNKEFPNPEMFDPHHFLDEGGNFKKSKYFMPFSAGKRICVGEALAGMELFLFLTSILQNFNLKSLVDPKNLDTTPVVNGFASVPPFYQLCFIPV

[3] = Permeability across human Caco-2 cell membrane; assay type: ADME, cell-based; settings: read-out: permeability
Cytochrome P450 3A4 [4] = molecular target: T3, Cytochrome P450 3A4 (Homo sapiens, UniProt P08684); test: Inhibition of CYP3A4 preincubated with compound; assay type: ADME
T3 sequence (P08684 whole entry): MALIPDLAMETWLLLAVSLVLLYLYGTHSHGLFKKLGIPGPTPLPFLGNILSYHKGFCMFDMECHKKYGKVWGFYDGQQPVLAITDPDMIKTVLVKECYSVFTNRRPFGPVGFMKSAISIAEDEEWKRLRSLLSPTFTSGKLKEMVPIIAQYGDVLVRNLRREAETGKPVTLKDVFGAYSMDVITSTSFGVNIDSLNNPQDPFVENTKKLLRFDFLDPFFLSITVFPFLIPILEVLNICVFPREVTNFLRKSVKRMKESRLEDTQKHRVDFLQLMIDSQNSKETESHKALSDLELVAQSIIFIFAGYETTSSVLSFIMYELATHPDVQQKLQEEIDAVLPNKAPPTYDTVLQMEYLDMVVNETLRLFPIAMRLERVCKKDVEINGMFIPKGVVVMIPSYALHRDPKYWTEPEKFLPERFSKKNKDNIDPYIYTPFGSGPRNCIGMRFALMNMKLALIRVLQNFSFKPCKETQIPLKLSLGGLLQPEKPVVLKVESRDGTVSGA

A2780 [5] = test: Antiproliferative activity against human A2780 cells assessed s occurrence of monostral phenotype at 25 uM after 48 hrs by Almar blue assay; assay type: functional, cell-based
Cytochrome P450 2C9 [6] = molecular target: T2, Cytochrome P450 2C9; test: Inhibition of CYP2C9 preincubated with compound; assay type: ADME
A2780 [7] = test: Antiproliferative activity against human A2780 cells after 48 hrs by Almar blue assay; assay type: functional, cell-based; settings: A2780, 48 h
[8] = molecular target: T4, Kinesin-like protein KIF11 (Homo sapiens, UniProt P52732); test: Inhibition of human kinesin spindle protein by endpoint assay
T4 sequence (P52732 whole entry): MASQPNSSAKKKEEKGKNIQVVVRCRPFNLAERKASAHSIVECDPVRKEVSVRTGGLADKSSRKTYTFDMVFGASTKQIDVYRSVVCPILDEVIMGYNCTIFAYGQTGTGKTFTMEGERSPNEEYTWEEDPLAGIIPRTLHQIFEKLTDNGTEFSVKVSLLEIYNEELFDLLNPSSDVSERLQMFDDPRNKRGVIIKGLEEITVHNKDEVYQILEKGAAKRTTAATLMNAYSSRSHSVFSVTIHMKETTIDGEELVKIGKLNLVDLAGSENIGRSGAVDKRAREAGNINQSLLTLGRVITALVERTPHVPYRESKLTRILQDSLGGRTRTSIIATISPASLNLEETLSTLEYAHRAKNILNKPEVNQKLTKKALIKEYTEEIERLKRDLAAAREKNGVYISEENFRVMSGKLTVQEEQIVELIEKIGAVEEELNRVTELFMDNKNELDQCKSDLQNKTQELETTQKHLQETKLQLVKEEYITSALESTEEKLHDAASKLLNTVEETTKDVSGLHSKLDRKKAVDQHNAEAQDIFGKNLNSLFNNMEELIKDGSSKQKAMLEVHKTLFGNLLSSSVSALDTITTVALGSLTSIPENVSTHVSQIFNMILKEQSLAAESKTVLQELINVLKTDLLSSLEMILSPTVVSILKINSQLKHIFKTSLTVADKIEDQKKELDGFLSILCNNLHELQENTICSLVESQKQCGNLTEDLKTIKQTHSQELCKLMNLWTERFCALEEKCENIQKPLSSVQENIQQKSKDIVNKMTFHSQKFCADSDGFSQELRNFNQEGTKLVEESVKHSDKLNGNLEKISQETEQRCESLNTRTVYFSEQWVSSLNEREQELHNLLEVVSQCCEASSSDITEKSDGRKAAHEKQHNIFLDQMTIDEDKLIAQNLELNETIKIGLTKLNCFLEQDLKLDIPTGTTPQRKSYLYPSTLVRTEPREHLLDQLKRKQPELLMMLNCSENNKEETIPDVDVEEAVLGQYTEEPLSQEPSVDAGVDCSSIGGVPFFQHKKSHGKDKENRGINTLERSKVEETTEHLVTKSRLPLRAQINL

[9] = molecular target: T5, Kinesin-like protein KIF3B (Homo sapiens, UniProt O15066); test: Inhibition of Kif3B
T5 sequence (O15066 whole entry): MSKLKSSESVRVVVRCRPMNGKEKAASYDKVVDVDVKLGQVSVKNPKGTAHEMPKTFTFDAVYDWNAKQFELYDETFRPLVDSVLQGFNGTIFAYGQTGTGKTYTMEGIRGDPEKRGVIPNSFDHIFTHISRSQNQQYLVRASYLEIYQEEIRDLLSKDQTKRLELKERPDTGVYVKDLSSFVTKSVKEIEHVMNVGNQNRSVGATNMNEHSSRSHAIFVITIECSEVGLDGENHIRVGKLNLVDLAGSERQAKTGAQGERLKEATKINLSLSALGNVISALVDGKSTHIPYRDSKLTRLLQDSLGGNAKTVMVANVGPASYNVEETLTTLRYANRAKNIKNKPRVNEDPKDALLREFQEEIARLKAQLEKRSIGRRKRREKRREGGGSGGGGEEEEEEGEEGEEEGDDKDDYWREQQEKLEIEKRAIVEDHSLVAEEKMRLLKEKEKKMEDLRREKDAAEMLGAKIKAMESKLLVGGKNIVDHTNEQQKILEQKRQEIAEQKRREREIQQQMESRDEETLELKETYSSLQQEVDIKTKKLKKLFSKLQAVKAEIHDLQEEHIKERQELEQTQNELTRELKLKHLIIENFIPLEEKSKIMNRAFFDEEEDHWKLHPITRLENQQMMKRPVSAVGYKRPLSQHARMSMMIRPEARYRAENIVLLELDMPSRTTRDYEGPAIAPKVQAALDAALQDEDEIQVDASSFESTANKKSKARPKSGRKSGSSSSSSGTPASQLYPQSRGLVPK

[10] = molecular target: T6, Kinesin heavy chain isoform 5A (Homo sapiens, UniProt Q12840); test: Inhibition of nKHC
T6 sequence (Q12840 whole entry): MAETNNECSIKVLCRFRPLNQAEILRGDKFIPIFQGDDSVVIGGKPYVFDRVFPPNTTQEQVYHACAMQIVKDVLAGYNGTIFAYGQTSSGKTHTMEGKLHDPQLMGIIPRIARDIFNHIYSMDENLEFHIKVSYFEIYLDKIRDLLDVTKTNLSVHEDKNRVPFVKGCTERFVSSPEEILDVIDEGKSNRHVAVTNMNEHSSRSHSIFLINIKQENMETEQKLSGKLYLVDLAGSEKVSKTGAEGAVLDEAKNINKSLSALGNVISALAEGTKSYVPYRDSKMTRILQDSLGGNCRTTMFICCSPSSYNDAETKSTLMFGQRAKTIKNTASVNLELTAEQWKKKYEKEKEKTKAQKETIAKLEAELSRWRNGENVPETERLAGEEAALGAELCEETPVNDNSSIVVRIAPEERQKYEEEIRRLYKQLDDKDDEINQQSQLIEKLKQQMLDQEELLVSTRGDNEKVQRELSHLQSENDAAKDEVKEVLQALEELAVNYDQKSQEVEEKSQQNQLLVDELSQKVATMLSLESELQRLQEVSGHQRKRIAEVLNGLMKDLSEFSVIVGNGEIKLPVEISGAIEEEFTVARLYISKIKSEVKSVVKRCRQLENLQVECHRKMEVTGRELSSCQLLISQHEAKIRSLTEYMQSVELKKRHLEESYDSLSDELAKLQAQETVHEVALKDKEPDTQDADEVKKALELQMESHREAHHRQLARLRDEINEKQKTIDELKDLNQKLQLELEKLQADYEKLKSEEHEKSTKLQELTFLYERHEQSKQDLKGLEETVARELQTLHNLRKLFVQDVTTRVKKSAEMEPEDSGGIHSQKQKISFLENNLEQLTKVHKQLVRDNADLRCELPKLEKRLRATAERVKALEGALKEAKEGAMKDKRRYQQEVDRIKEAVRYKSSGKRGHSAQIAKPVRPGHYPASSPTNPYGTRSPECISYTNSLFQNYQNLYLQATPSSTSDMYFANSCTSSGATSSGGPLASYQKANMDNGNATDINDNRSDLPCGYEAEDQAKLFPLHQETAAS

Cytochrome P450 2D6 [11] = molecular target: T1, Cytochrome P450 2D6; test: Inhibition of CYP2D6 coincubated with compound; assay type: ADME
Cytochrome P450 3A4 [12] = molecular target: T3, Cytochrome P450 3A4; test: Inhibition of CYP3A4 coincubated with compound; assay type: ADME
[13] = molecular target: Kinesin-like protein KIF11 (Homo sapiens) (UniProt P52732); test: Selectivity for human KSP over HSET

T1 sequence (P10635 whole entry): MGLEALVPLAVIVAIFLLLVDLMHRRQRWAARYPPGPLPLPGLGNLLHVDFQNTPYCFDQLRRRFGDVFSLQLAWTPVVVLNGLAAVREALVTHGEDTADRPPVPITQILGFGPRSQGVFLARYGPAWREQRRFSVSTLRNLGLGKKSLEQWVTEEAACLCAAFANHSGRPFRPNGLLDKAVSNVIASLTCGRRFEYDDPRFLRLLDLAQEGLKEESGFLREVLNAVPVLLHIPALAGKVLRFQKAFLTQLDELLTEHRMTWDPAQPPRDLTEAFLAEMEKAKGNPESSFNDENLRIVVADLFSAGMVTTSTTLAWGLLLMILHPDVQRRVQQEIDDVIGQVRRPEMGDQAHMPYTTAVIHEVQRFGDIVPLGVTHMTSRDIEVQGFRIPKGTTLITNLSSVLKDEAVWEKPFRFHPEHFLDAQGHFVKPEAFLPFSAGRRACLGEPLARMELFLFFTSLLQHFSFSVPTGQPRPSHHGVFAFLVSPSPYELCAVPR

| AUC (Rattus norvegicus) | IC50 (Cytochrome P450 2D6 [1]) | IC50 (Cytochrome P450 2C9 [2]) | Papp [3] | IC50 (Cytochrome P450 3A4 [4]) | IC50 (Cytochrome P450 2C9 [6]) | IC50 (A2780 [7]) | IC50 [8] | IC50 [9] | IC50 [10] | IC50 (Cytochrome P450 2D6 [11]) | IC50 (Cytochrome P450 3A4 [12]) | fold change (FC) [13] | Structure (SMILES) | Activity (A2780 [5]) |
| --- | --- | --- | --- | --- | --- | --- | --- | --- | --- | --- | --- | --- | --- | --- |
| 0.6 µM·h | > 15 µM | 8 µM | 67 ×10⁻⁶ cm/s | > 15 µM | > 4 µM | 19 µM | 2.5 µM | > 50 µM | > 50 µM | > 30 µM | > 30 µM | – | COc1ccc(Nc2nc3cc(C(N)=O)ccc3n2Cc2ccccc2C(F)(F)F)cc1 | Active |
| 0 µM·h | > 15 µM | 15 µM | 1.8 ×10⁻⁶ cm/s | > 20 µM | > 8 µM | – | 4.8 µM | > 50 µM | > 50 µM | > 30 µM | > 30 µM | – | CS(=O)(=O)c1ccc(Nc2nc3cc(C(N)=O)ccc3n2Cc2ccccc2C(F)(F)F)cc1 | – |
| 0.15 µM·h | > 15 µM | 14 µM | 53 ×10⁻⁶ cm/s | < 15 µM | > 7 µM | 16 µM | 0.52 µM | > 50 µM | > 50 µM | > 30 µM | > 30 µM | 8 | CSc1ccc(Nc2nc3cc(C(N)=O)ccc3n2Cc2ccccc2C(F)(F)F)cc1 | Active |

Reference: ChEMBL document CHEMBL1158447, “Substituted benzimidazoles: A novel chemotype for small molecule hKSP inhibitors” (Bioorg Med Chem Lett, 2009)
